The source made the active and inactive calls. The calls are words filed in the database; no cut-off is given here.
Assays:
Toxin B [1] = biological target: T1, Toxin B (Clostridioides difficile, UniProt P18177); test: Allosteric activation of Clostridioides difficile Toxin B assessed as induction of autoproteolysis measured after 3 hrs in presence of CaCl2, MgCl2, ZnCl2 by Western blot based extent cleavage assay
[2] = biological target: Toxin B (Clostridioides difficile) (UniProt P18177); test: Stabilization of His6 tagged Clostridioides difficile Toxin B truncated cysteine protease domain (543 to 799 residues) extracted from Escherichia coli BL21 (DE3) assessed as change in melting temperature by SYPRO Orange dye based differential scanning fluorometry analysis
Toxin B (Clostridioides difficile), sequence (P18177 whole entry, the tested form may be a part): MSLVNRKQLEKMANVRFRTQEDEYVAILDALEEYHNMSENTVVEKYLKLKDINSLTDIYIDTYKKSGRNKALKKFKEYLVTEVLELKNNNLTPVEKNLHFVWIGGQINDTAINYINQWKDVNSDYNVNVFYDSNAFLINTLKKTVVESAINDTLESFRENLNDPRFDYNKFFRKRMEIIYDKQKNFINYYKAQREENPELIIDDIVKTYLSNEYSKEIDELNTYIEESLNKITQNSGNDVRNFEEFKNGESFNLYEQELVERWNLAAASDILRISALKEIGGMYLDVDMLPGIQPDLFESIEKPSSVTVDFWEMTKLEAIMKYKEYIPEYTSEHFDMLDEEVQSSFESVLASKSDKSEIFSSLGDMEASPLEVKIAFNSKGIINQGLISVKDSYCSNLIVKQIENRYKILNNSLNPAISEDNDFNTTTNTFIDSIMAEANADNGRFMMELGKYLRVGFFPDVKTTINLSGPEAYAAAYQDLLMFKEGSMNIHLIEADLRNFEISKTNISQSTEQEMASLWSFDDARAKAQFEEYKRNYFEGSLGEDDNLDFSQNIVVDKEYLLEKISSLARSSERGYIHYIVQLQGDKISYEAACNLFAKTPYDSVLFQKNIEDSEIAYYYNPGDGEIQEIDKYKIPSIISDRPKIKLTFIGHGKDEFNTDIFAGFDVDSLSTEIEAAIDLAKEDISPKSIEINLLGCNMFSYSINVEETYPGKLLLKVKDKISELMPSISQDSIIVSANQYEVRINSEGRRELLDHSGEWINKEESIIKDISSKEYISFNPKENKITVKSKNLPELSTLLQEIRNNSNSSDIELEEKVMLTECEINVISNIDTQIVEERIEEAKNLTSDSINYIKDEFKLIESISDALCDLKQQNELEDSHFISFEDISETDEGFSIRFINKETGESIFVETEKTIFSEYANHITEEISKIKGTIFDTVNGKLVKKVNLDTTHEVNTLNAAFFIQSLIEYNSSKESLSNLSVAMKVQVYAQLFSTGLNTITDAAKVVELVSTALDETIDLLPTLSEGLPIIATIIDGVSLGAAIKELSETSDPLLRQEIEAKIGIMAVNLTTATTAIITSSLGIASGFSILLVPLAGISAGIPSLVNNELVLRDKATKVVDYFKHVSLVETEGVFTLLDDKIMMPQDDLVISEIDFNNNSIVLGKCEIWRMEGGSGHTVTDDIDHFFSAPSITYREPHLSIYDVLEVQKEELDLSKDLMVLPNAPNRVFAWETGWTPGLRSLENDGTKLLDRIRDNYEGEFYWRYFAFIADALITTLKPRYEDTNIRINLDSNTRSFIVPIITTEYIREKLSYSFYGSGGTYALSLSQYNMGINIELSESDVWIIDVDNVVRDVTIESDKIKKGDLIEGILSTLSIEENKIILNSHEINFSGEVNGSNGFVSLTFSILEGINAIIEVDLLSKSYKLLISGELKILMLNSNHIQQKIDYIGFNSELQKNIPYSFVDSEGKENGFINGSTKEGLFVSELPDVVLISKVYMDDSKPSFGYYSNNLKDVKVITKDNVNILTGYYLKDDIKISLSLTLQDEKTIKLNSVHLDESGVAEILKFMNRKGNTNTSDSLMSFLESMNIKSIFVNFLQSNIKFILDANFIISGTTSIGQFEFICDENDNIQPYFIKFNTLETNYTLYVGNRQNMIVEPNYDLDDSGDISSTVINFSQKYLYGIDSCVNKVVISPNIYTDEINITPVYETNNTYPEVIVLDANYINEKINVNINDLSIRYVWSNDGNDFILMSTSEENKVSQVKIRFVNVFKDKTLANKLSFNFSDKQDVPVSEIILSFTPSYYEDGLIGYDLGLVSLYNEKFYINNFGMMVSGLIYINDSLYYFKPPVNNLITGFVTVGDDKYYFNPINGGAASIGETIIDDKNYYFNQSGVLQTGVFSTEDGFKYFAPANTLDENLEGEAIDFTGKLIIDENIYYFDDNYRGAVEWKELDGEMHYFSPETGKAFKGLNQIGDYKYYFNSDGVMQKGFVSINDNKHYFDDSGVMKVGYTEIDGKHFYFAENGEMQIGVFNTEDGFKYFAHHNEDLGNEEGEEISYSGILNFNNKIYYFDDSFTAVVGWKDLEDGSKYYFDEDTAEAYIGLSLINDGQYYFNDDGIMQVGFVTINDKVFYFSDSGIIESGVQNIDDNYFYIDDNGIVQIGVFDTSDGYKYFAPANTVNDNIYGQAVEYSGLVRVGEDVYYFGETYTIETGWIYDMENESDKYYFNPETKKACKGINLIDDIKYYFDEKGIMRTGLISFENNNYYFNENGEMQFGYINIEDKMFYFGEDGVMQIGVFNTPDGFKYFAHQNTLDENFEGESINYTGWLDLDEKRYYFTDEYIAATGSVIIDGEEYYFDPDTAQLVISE

[3] = biological target: Toxin B (Clostridioides difficile) (UniProt P18177); test: Allosteric activation of Clostridioides difficile Toxin B assessed as induction of autoproteolysis by measuring increase in TcdB cleavage at 50 uM incubated for 3 hrs in presence of 10 mM MgCl2 by silver staining based SDS-PAGE analysis
[4] = Metal chelating activity assessed as compound-Mg2+ complex formation by measuring precipitation at 250 uM at pH 2 to 8 incubated for 30 mins in presence of 1.25 to 10 mM MgCl2 by turbidimetric assay
[5] = biological target: Toxin B (Clostridioides difficile) (UniProt P18177); test: Allosteric activation of Clostridioides difficile Toxin B assessed as induction of autoproteolysis by measuring increase in TcdB cleavage at 50 uM incubated for 3 hrs in presence of 10 mM CaCl2 by silver staining based SDS-PAGE analysis relative to control
[6] = biological target: Toxin B (Clostridioides difficile) (UniProt P18177); test: Allosteric activation of Clostridioides difficile Toxin B assessed as induction of autoproteolysis by measuring increase in TcdB cleavage at 50 uM incubated for 3 hrs in presence of 1.25 mM MgCl2 by silver staining based SDS-PAGE analysis
[7] = biological target: Toxin B (Clostridioides difficile) (UniProt P18177); test: (§1) Competitive binding affinity to His6 tagged Clostridioides difficile Toxin B truncated cysteine protease domain (543 to 799 residues) extracted from Escherichia coli BL21 (DE3) assessed as peaks with change in chemical shift perturbation by measuring residual activity at 350 uM in presence of 1,3,5-(Tri-O-thiophosphate)-myo-inositol-2,4,6-tri-O-sulfate by 1H-15N-HSQC NMR analysis relative to control; conditions: filed as positive allosteric modulator
[8] = biological target: Toxin B (Clostridioides difficile) (UniProt P18177); test: Binding affinity to His6 tagged Clostridioides difficile Toxin B truncated cysteine protease domain (543 to 799 residues) extracted from Escherichia coli BL21 (DE3) assessed as change in number of bound protons per binding interaction at 530 uM by ITC analysis; conditions: filed as positive allosteric modulator
Toxin B [9] = biological target: T1, Toxin B; test: Binding affinity to His6 tagged Clostridioides difficile Toxin B truncated cysteine protease domain (543 to 799 residues) extracted from Escherichia coli BL21 (DE3) assessed as dissociation constant by ITC method
[10] = biological target: Toxin B (Clostridioides difficile) (UniProt P18177); test: Allosteric activation of Clostridioides difficile Toxin B assessed as induction of autoproteolysis by measuring maximal extent cleavage measured after 3 hrs by Western blot based extent cleavage assay relative to control; conditions: filed as positive allosteric modulator
[11] = biological target: Toxin B (Clostridioides difficile) (UniProt P18177); test: Allosteric activation of Clostridioides difficile Toxin B assessed as induction of autoproteolysis by measuring increase in TcdB cleavage at 50 uM incubated for 3 hrs in presence of 3 mM CaCl2 by silver staining based SDS-PAGE analysis
[12] = biological target: Toxin B (Clostridioides difficile) (UniProt P18177); test: Competitive binding affinity to His6 tagged Clostridioides difficile […]-Toxin B truncated cysteine protease domain (543 to 799 residues) extracted from Escherichia coli BL21 (DE3) assessed as peaks with change in chemical shift perturbation at 350 uM by 31P-NMR analysis
Toxin B [13] = biological target: T1, Toxin B; test: Allosteric activation of Clostridioides difficile Toxin B assessed as induction of autoproteolysis measured after 3 hrs by Western blot based extent cleavage assay
[14] = Metal chelating activity assessed as compound-Ca2+ complex formation by measuring precipitation at 250 uM at pH 2 to 8 incubated for 30 mins in presence of 3 to 10 mM CaCl2 by turbidimetric assay
[15] = biological target: Toxin B (Clostridioides difficile) (UniProt P18177); test: Allosteric activation of Clostridioides difficile Toxin B assessed as induction of autoproteolysis by measuring increase in TcdB cleavage at 50 uM incubated for 3 hrs in presence of 100 uM ZnCl2 by silver staining based SDS-PAGE analysis
[16] = biological target: Toxin B (Clostridioides difficile) (UniProt P18177); test: Stabilization of His6 tagged Clostridioides difficile apo-Toxin B truncated cysteine protease domain (543 to 799 residues) extracted from Escherichia coli BL21 (DE3) assessed as chemical shift perturbation by measuring increase in number of peaks by 1H-15N-HSQC NMR analysis (reference value: 141)
[17] = Metal chelating activity assessed as compound-Ca2+ complex formation by measuring reduction in free cation concentration at 200 uM in presence of 200 uM CaCl2 by colorimetric assay
[18] = biological target: Toxin B (Clostridioides difficile) (UniProt P18177); test: Allosteric activation of Clostridioides difficile Toxin B assessed as induction of autoproteolysis by measuring increase in TcdB cleavage at 50 uM measured after 3 hrs by silver staining based SDS-PAGE analysis relative to control; conditions: filed as positive allosteric modulator
[19] = Metal chelating activity assessed as compound-Mg2+ complex formation by measuring reduction in free cation concentration at 200 uM in presence of 200 uM MgCl2 by colorimetric assay
[20] = biological target: Toxin B (Clostridioides difficile) (UniProt P18177); test: Allosteric activation of Clostridioides difficile Toxin B assessed as induction of autoproteolysis by measuring increase in TcdB cleavage measured after 3 hrs by silver staining based SDS-PAGE analysis; conditions: filed as positive allosteric modulator
[21] = Solubility of compound assessed as precipitate formation at 250 uM at pH 2 to 8 incubated for 30 mins in presence of 20 to 100 uM ZnCl2 by turbidimetric assay; assay type: physicochemical; conditions: buffer, pH 2, 0.5 h
[22] = Solubility of compound assessed as precipitate formation at 250 uM at pH 2 to 8 incubated for 30 mins in presence of 3 to 10 mM CaCl2 by turbidimetric assay; assay type: physicochemical; conditions: buffer, pH 2, 0.5 h
[23] = Solubility of compound assessed as precipitate formation at 250 uM at pH 2 to 8 incubated for 30 mins in presence of 1.25 to 10 mM MgCl2 by turbidimetric assay; assay type: physicochemical; conditions: buffer, pH 2, 0.5 h
Toxin B [24] = biological target: T1, Toxin B; test: Binding affinity to His6 tagged Clostridioides difficile Toxin B truncated cysteine protease domain (543 to 799 residues) extracted from Escherichia coli BL21 (DE3) assessed as dissociation constant in presence of 10 mM Ca2+ by ITC method
[25] = biological target: Toxin B (Clostridioides difficile) (UniProt P18177); test: as §1, with “(1R,2r,3S,4R,5s,6S)-cyclohexane-1,2,3,4,5,6-hexayl hexakis (dihydrogen phosphate)” for “1,3,5-(Tri-O-thiophosphate)-myo-inositol-2,4,6-tri-O-sulfate”; conditions: filed as positive allosteric modulator
[26] = biological target: Toxin B (Clostridioides difficile) (UniProt P18177); test: Stabilization of His6 tagged Clostridioides difficile holo-Toxin B truncated cysteine protease domain (543 to 799 residues) extracted from Escherichia coli BL21 (DE3) assessed as peaks with change in chemical shift perturbation at 350 uM by 1H-15N-HSQC NMR analysis relative to control
[27] = filed as positive allosteric modulator

T1 sequence (P18177 whole entry, the tested form may be a part): as above

| Structure (SMILES) | EC50 (Toxin B [1]) [µM] | ΔTm [2] [°C] | Activity [6] | Activity [8] | Kd (Toxin B [9]) [µM] | Activity [11] | EC50 (Toxin B [13]) [µM] | Activity [15] | Activity [17] | Activity [19] | solubility [21] | solubility [22] | solubility [23] | Kd (Toxin B [24]) [µM] | further results |
| --- | --- | --- | --- | --- | --- | --- | --- | --- | --- | --- | --- | --- | --- | --- | --- |
| O=P(O)(O)O[C@H]1[C@H](OP(=O)(O)O)[C@@H](OP(=O)(O)O)[C@H](OP(=O)(O)O)[C@@H](OP(=O)(O)O)[C@H]1OP(=O)(O)O [PHYTIC ACID] | 536 | 3.3 | inactive | -1.28 | 1.36 | inactive | 8.39 | inactive |  |  |  |  |  |  | Activity [3]: 23%; Activity [4]: Active; Activity [5]: 6%; Activity [7]: 47%; Activity [10]: 98%; Activity [12]: inactive; Activity [14]: Active; Activity [16]: 193 |
| O=S(=O)(O)O[C@H]1[C@@H](OS(=O)(=O)O)[C@H](OS(=O)(=O)O)[C@@H](OP(O)(O)=S)[C@H](OS(=O)(=O)O)[C@H]1OS(=O)(=O)O |  | 3.1 | inactive |  | 2.19 | inactive |  | inactive | Active | Active |  |  |  |  | Activity [18]: Active |
| O=P(O)(O)O[C@@H]1[C@@H](OP(=O)(O)O)[C@H](OP(=O)(O)O)[C@H](OCc2ccccc2)[C@H](OP(=O)(O)O)[C@H]1OP(=O)(O)O |  |  |  |  |  |  |  |  |  |  |  |  |  |  | Activity [20]: Active |
| O=S(=O)(O)O[C@@H]1[C@@H](OS(=O)(=O)O)[C@H](OS(=O)(=O)O)[C@H](OP(O)(O)=S)[C@H](OS(=O)(=O)O)[C@H]1OS(=O)(=O)O |  |  |  |  | 7.14 |  |  |  |  |  | Soluble | Soluble | Soluble |  |  |
| OP(O)(=S)O[C@H]1[C@H](OP(O)(O)=S)[C@@H](OP(O)(O)=S)[C@H](OP(O)(O)=S)[C@@H](OP(O)(O)=S)[C@H]1OP(O)(O)=S | 657 | 5.6 | inactive |  | 0.184 | inactive | 2.31 | inactive | Active | Active | Soluble | Soluble | Soluble |  |  |
| O=S(=O)(O)O[C@H]1[C@H](OP(O)(O)=S)[C@@H](OS(=O)(=O)O)[C@H](OP(O)(O)=S)[C@@H](OS(=O)(=O)O)[C@H]1OP(O)(O)=S |  |  |  | -0.01 | 2.26 |  |  |  |  |  |  |  |  | 5.37 |  |
| O=S(=O)(O)O[C@H]1[C@H](OP(O)(O)=S)[C@H](OS(=O)(=O)O)[C@H](OP(O)(O)=S)[C@@H](OS(=O)(=O)O)[C@@H]1OP(O)(O)=S | 113 | 5.1 | inactive | -0.03 | 0.662 | inactive | 3.56 | inactive | Active | Active | Soluble | Soluble | Soluble | 2.66 | Activity [25]: 7%; Activity [3, 27]: 42%; Activity [18]: Active; Activity [5, 27]: 51%; Activity [10]: 117%; Activity [12, 27]: Active; Activity [26]: 49%; Activity [16]: 208 |
| O=S(=O)(O)O[C@@H]1[C@@H](OP(O)(O)=S)[C@H](OS(=O)(=O)O)[C@H](OS(=O)(=O)O)[C@H](OS(=O)(=O)O)[C@H]1OP(O)(O)=S | 557 | 5.3 | inactive | 0.11 | 2.2 | inactive | 27.1 | inactive | Active | Active | Soluble | Soluble | Soluble | 4.69 |  |

— ChEMBL document CHEMBL5608240, “Structure-Activity Relationship of Inositol Thiophosphate Analogs as Allosteric Activators of Clostridioides difficile Toxin B” (J Med Chem, 2024)
